Assay results taken from BindingDB's records for patent US9394289 (Janssen Pharmaceutica, 2016).

Target: Macrophage colony-stimulating factor 1 receptor (Homo sapiens, UniProt P07333)
Assay: Fluorescence Polarization Competition Immunoassay
Conditions: pH 7.5; 25 °C
Experimental: The assay buffer used was 100 mM 4-(2-hydroxyethyl)piperazine 1-ethanesulfonic acid (HEPES), pH 7.5, 1 mM 1,4-dithio-DL-threitol (DTT), 0.01% (v/v) Tween-20. Compounds were diluted in assay buffer containing 4% dimethylsulfoxide (DMSO) just prior to the assay. To each well, 5 μL of compound were added followed by the addition of 3 μL of a mix containing 33 nM c-fms (Johnson & Johnson PRD) and 16.7 mM MgCl2 (Sigma) in assay buffer. The kinase reaction was initiated by adding 2 μL of 5 mM ATP (Sigma) in assay buffer. The final concentrations in the assay were 10 nM c-fms, 1 mM ATP, 5 mM MgCl2, 2% DMSO. Control reactions were ran in each plate: in positive and negative control wells, assay buffer (made 4% in DMSO) was substituted for the compound; in addition, positive control wells received 1.2 μL of 50 mM ethylenediaminetetraaceticacid (EDTA). The plates were incubated at room temperature for 45 min. At the end of the incubation, the reaction was quenched with 1.2 μL of 50 mM EDTA (EDTA was not added to the positive control wells at this point; see above). Following a 5-min incubation, each well received 10 μL of a 1:1:3 mixture of anti-phosphotyrosine antibody, 10×, PTK green tracer, 10× (vortexed), FP dilution buffer, respectively (all from PanVera, cat. #P2837). The plate was covered, incubated for 30 min at room temperature and the fluorescence polarization was read on the Analyst. […]

Sequence of Macrophage colony-stimulating factor 1 receptor (P07333 whole entry): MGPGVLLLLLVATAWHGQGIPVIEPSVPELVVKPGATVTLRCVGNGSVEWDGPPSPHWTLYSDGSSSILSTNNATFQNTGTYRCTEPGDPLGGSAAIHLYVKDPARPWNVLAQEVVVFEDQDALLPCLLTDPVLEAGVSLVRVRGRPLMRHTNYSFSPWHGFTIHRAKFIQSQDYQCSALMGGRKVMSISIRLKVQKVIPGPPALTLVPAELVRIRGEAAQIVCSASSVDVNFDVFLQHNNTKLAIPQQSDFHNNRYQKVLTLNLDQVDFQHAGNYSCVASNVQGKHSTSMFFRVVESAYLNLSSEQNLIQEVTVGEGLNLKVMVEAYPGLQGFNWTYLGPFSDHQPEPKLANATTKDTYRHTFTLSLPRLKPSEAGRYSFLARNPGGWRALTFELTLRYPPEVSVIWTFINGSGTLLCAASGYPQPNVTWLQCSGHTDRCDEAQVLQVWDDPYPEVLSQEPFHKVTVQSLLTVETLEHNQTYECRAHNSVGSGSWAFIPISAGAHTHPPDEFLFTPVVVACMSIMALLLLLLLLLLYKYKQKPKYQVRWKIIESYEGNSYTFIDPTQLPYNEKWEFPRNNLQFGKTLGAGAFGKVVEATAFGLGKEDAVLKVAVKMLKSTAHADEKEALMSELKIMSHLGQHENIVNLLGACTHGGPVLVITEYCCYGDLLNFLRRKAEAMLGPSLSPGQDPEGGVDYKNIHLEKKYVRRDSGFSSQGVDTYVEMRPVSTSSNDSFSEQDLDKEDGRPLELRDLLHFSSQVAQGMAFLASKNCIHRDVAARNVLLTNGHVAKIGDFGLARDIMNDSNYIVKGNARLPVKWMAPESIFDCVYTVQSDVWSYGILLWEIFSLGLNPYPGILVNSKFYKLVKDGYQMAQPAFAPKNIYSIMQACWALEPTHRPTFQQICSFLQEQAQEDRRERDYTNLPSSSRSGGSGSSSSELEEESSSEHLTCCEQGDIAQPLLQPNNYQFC

With N#Cc1c[nH]c(C(=O)Nc2ccc(C3(O)CCS(=O)(=O)CC3)cc2C2=CCCCC2)n1 [US9394289, 15] as the compound, how does the IC50 read?
Its IC50 is 2.9 nM.
